# Measurements as given in publication PMC10721329, “Quisinostat is a brain-penetrant radiosensitizer in glioblastoma” (JCI Insight, 2023).
# “And” between values parts separate entries of the source, which are not always exact repeats. Equal entries are not always repeated.
# How the values were obtained:
# [1] = Stability in human brain homogenate at 37°C; assay type: in vitro ADME; conditions: for %stability in human brain homogenate, mean / stability in human brain homogenate, [QST], % of control: 37 C; for stability in human brain homogenate, [QST], % of control: single data points
# Protocol: Hydroxamic acid–based compounds have been reported to display poor stability and high plasma clearance due to the presence of arylesterases and carboxylesterases in rodent blood ([34]). Therefore, we measured the stability of QST in mouse plasma and brain to determine whether drug degradation occurred during our sample preparations and equilibrium dialyses for the determination of unbound drug level (performed at 37°C). […] QST degradation was also observed in mouse brain homogenate (Figure 6B). However, perfusion of mice before brain collection prevented rapid drug degradation in the brain matrix. […] Degradation of QST can also be constrained if plasma and brain samples are processed at 4°C (Supplemental Figure 4A). All subsequent sample preparations were therefore performed on ice-cold baths to avoid degradation of QST in our PK analyses. […] The observed stability is probably due to the absence of esterases in human matrices, which are responsible for degradation of QST ([34]). Because we employed QST in several in vitro studies (Figures 1–4), the stability of the molecule was also tested in the cell media used to culture GSCs (neurobasal medium; see Methods).
# Stability Study in Mouse Plasma, Mouse Brain, Human Plasma, Human Brain, and Neural […]
# The stability of QST was determined in BALB/c mouse plasma, male nude athymic perfused and nonperfused mouse brain homogenate (1:9 w/v of PBS; pH 7.4), human brain (obtained from VRL Eurofins) homogenate (1:4 w/v of PBS; pH 7.4), pooled human plasma (Innovative Research), and neurobasal media. QST stock solutions (1 mM) were prepared in acetonitrile, subsequently diluted in a 40% methanol mixture, and added t o the matrices to make final concentrations of 100 nM or 10 nM. Then 50 or 30 µL of either plasma or brain homogenate containing QST were aliquoted into 1.5-mL microcentrifuge tubes (Eppendorf) and were incubated at either 4 °C or 37 °C for 0, 2, 4, 6, 12, or 24 hours (n = 3 at each time point). […]
# Plasma and brain […]
# homogenate samples were stored at −80 °C until LC-MS/MS analysis. […]
# [2] = system: histone H3 acetylation (H3K9/14ac); experiment: H3K9/14ac immunoblot of normal brain tissue; assay type: in vivo, athymic nude mice; conditions: QST 10 mg/kg IP MWF 2 weeks, individual mice
# Protocol: Insufficient drug exposure in the brain is a major hurdle in the treatment of brain tumors. […] On the last treatment day, blood and intact brains were harvested 2 hours after dosing with QST (Figure 6E). […] Each brain hemisphere was processed separately to perform matched PK and PD analyses from the same animal. […] For PD analyses, we homogenized entire hemispheres to obtain whole-tissue protein lysates from each mouse and assessed changes in histone H3 acetylation levels using immunoblotting.
# Cellular protein from cultured cells was homogenized in radioimmunoprecipitation assay (RIPA) lysis buffer containing protease and phosphatase inhibitors (ThermoFisher Scientific), rotated at 4 °C for 20 minutes and then centrifuged at 15,000 rpm for 10 minutes at 4 °C. For histone extractions, benzonase (0.1 U/μL) was added in RIPA buffer (Millipore-Sigma, 70746-4). Protein concentrations from whole-cell extracts were determined using the Bradford Protein Assay (ThermoFisher Scientific). Equal amounts of protein (10-40 μg/lane) were loaded onto 10% or 12.5% sodium dodecyl sulfate–polyacrylamide gel electrophoresis gels and transferred to a polyvinylidene fluoride membrane (Millipore-Sigma). […]
# [3] = Body weight / tolerability in non-tumor-bearing mice; assay type: in vivo, athymic nude mice; conditions: for weight of normal nude mice during QST treatment: QST 10 mg/kg, individual mice
# GB126 cells = experiment: Cell cycle analysis, propidium iodide flow cytometry; assay type: cell-based, human
# Protocol: (§1) For cell cycle analysis following short -term DMSO or QST treatment in GSC cultures, approximately 1 million cells were harvested, washed in cold 1× PBS once, and fixed with 3–4 mL of ice cold 70% ethanol, added dropwise while vortexing. Cells were fixed on ice for 30 minutes and washed twice with 1× PBS. Cells were then resuspended in 500 μL of propidium iodide/RNAse staining buffer (BD Biosciences, 550825) for 15 minutes at room temperature before analysis. Data from all the samples were obtained using a Fortessa flow cytometer (BD Biosciences) and analyzed using the FlowJo software (TreeStar). Cell cycle analysis was performed in triplicate for all cell lines.
# BT145 cells = experiment: as above; assay type: cell-based, human
# Protocol: as §1
# [4] = QST at IC50, 24 hours, replicates
smiles,measurement,setting,value
"Cn1cc(CNCC2CCN(c3ncc(C(=O)NO)cn3)CC2)c2ccccc21 [QST, quisinostat]","%stability in human brain homogenate, mean","[1]; 10 nM, 0 hrs",100 % of control
same,"stability in human brain homogenate, [QST], % of control","[1]; 10 nM, 0 hrs",101.7 % of control and 98.5 % of control and 98.3 % of control
same,"%stability in human brain homogenate, mean","[1]; 10 nM, 2 hrs",90.6 % of control
same,"stability in human brain homogenate, [QST], % of control","[1]; 10 nM, 2 hrs",87.5 % of control and 89.1 % of control and 95.1 % of control
same,"%stability in human brain homogenate, mean","[1]; 10 nM, 6 hrs",94.8 % of control
same,"stability in human brain homogenate, [QST], % of control","[1]; 10 nM, 6 hrs",95.6 % of control and 93.7 % of control and 94.9 % of control
same,"%stability in human brain homogenate, mean","[1]; 10 nM, 24 hrs",82.9 % of control
same,"stability in human brain homogenate, [QST], % of control","[1]; 10 nM, 24 hrs",83.1 % of control and 81 % of control and 84.6 % of control
same,"%stability in human brain homogenate, mean","[1]; 100 nM, 0 hrs",100 % of control
same,"stability in human brain homogenate, [QST], % of control","[1]; 100 nM, 0 hrs",98.8 % of control and 102.5 % of control and 98.7 % of control
same,"%stability in human brain homogenate, mean","[1]; 100 nM, 2 hrs",89.0 % of control
same,"stability in human brain homogenate, [QST], % of control","[1]; 100 nM, 2 hrs",90.7 % of control and 89.5 % of control and 86.8 % of control
same,"%stability in human brain homogenate, mean","[1]; 100 nM, 6 hrs",92.7 % of control
same,"stability in human brain homogenate, [QST], % of control","[1]; 100 nM, 6 hrs",93.9 % of control and 90.6 % of control and 93.7 % of control
same,"%stability in human brain homogenate, mean","[1]; 100 nM, 24 hrs",84.4 % of control
same,"stability in human brain homogenate, [QST], % of control","[1]; 100 nM, 24 hrs",81.6 % of control and 84.2 % of control and 87.3 % of control
same,stability in human brain homogenate,[1]; 37°C,completely stable
same,H3K9/14ac levels normalized to B-actin (fold change),[2],2.1642 and 2.588 and 3.2892 and 1.999 and 1.763
same,tolerability (weight loss),"[3]; 10 mg/kg IP MWF for 2 weeks, non-tumor-bearing athymic nude mice",well tolerated
same,weight of normal nude mice during QST treatment,[3]; treatment day 1,28.1 g (2×) and 28.4 g and 26.7 g and 26.2 g and 20.2 g
same,weight of normal nude mice during QST treatment,[3]; treatment day 2,27.9 g and 27.4 g and 26 g and 26.7 g and 20.4 g and 27.5 g
same,weight of normal nude mice during QST treatment,[3]; treatment day 3,27.4 g and 27.9 g and 25.6 g and 27.2 g and 20.3 g and 27.8 g
same,weight of normal nude mice during QST treatment,[3]; treatment day 4,28.1 g and 27.7 g and 25.7 g and 27 g (2×) and 20.8 g
same,weight of normal nude mice during QST treatment,[3]; treatment day 5,27.5 g and 27.4 g and 26.5 g and 27.1 g (2×) and 20.3 g
same,weight of normal nude mice during QST treatment,[3]; treatment day 6,27.4 g and 27 g and 26.9 g and 27.2 g and 20.2 g and 27.1 g
same,"Cell Cycle Phase, G1",GB126 cells; [4],37.77 and 45.07 and 43.79
same,"Cell Cycle Phase, G2",GB126 cells; [4],7.41 and 0 and 1.63
same,"Cell Cycle Phase, S",GB126 cells; [4],54.82 and 54.93 and 54.58
same,Mean proportion of cells in G1,"GB126 cells; QST, 24 hours",42%
same,Mean proportion of cells in G2,"GB126 cells; QST, 24 hours",3%
same,Mean proportion of cells in S,"GB126 cells; QST, 24 hours",55%
same,"Cell Cycle Phase (% of cells), G1",BT145 cells; [4],33.6% and 37% and 36.8%
same,"Cell Cycle Phase (% of cells), G2",BT145 cells; [4],48.8% and 41.5% and 48%
same,"Cell Cycle Phase (% of cells), S",BT145 cells; [4],16.4% and 20.3% and 13.8%
same,Mean proportion of cells in G1,"BT145 cells; QST, 24 hours",36%
same,Mean proportion of cells in G2,"BT145 cells; QST, 24 hours",46%
same,Mean proportion of cells in S,"BT145 cells; QST, 24 hours",17%
